Test results as given in the NIST ThermoML archive (doi:10.1016/j.jct.2015.08.014).

Experiment: xn = mol fraction of the nth substance listed
Conditions: 298.15 K, 100 kPa, Liquid; for viscosity: Capillary tube (Ostwald / Ubbelohde) method; for electrical conductivity: Alternating current cell with electrodes

CCCC[N+]1(C)CCCC1.N#CN=C=[N-] [1-butyl-1-methylpyrrolidinium dicyanamide] + O=C1CCCO1
Conditions | viscosity [mPa·s]
x1 = 0.4985 | 11.38
x1 = 0.6954 | 18.62
x1 = 0.9013 | 28.31
x1 = 1 | 33.71

electrical conductivity [S/m]
Conditions | Frequency=0.0005 MHz | Frequency=0.001 MHz | Frequency=0.0015 MHz | Frequency=0.002 MHz | Frequency=0.0025 MHz | Frequency=0.003 MHz | Frequency=0.00347222 MHz | Frequency=0.004 MHz | Frequency=0.00446429 MHz | Frequency=0.005 MHz
x1 = 0.0463 | 1.46 | 1.47 | 1.47 | 1.47 | 1.47 | 1.47 | 1.47 | 1.47 | 1.47 | 1.47
x1 = 0.0987 | 2.2 | 2.2 | 2.21 | 2.21 | 2.21 | 2.21 | 2.21 | 2.21 | 2.21 | 2.21
x1 = 0.1449 | 2.51 | 2.51 | 2.51 | 2.51 | 2.51 | 2.51 | 2.51 | 2.51 | 2.51 | 2.51
x1 = 0.1859 | 2.65 | 2.65 | 2.66 | 2.66 | 2.67 | 2.67 | 2.67 | 2.67 | 2.67 | 2.67
x1 = 0.2493 | 2.606 | 2.608 | 2.61 | 2.61 | 2.611 | 2.611 | 2.612 | 2.612 | 2.612 | 2.612
x1 = 0.3029 | 2.526 | 2.53 | 2.53 | 2.54 | 2.54 | 2.54 | 2.54 | 2.54 | 2.54 | –
x1 = 0.3845 | 2.35 | 2.36 | 2.36 | 2.36 | 2.36 | 2.36 | 2.36 | 2.36 | 2.36 | –
x1 = 0.4985 | 2.08 | 2.08 | 2.08 | 2.08 | 2.08 | 2.08 | 2.08 | 2.08 | 2.08 | –
x1 = 0.6954 | 1.67 | 1.68 | 1.68 | 1.68 | 1.68 | 1.68 | 1.68 | 1.68 | 1.68 | –
x1 = 0.9013 | 1.39 | 1.39 | 1.39 | 1.39 | 1.39 | 1.39 | 1.39 | 1.39 | 1.39 | –
x1 = 1 | 1.315 | 1.316 | 1.316 | 1.316 | 1.317 | 1.317 | 1.317 | 1.317 | 1.317 | –
